In the NIST ThermoML archive (doi:10.1016/j.jct.2013.04.010):
Values joined by “and” are separate entries in the source; they are usually repeats but may differ in a detail not shown here. Equal values may be shown once. ± gives the expanded uncertainty stated by the source.

Settings: Liquid, Other PVT measurement

CCCCC(CC)COC(=O)c1ccccc1C(=O)OCC(CC)CCCC (stereo not given) [bis(2-ethylhexyl) 1,2-benzenedicarboxylate]
Settings	mass density
373.29 K, 3800 kPa	921 ± 6 kg/m3
373.29 K, 7600 kPa	924 ± 7 kg/m3
373.29 K, 12200 kPa	928 ± 7 kg/m3
373.29 K, 15900 kPa	931 ± 7 kg/m3
373.29 K, 18100 kPa	933 ± 7 kg/m3
373.29 K, 22300 kPa	936 ± 7 kg/m3
373.29 K, 28300 kPa	940 ± 7 kg/m3
373.29 K, 34800 kPa	945 ± 7 kg/m3
373.29 K, 42200 kPa	950 ± 7 kg/m3
373.29 K, 48900 kPa	954 ± 7 kg/m3
373.29 K, 56100 kPa	959 ± 7 kg/m3
373.29 K, 69500 kPa	967 ± 7 kg/m3
373.29 K, 83700 kPa	974 ± 7 kg/m3
373.29 K, 104200 kPa	984 ± 7 kg/m3
373.29 K, 125400 kPa	994 ± 7 kg/m3
373.29 K, 138900 kPa	1001 ± 7 kg/m3
373.29 K, 152900 kPa	1007 ± 7 kg/m3
373.29 K, 174400 kPa	1015 ± 7 kg/m3
373.29 K, 208300 kPa	1029 ± 7 kg/m3
373.29 K, 240000 kPa	1041 ± 7 kg/m3
373.29 K, 262100 kPa	1046 ± 7 kg/m3
423.53 K, 4200 kPa	878 ± 6 kg/m3
423.53 K, 7900 kPa	885 ± 6 kg/m3
423.53 K, 11100 kPa	890 ± 6 kg/m3
423.53 K, 14500 kPa	895 ± 6 kg/m3
423.53 K, 18000 kPa	898 ± 6 kg/m3
423.53 K, 21200 kPa	901 ± 6 kg/m3
423.53 K, 27800 kPa	908 ± 6 kg/m3
423.53 K, 35200 kPa	914 ± 6 kg/m3
423.53 K, 42100 kPa	918 ± 6 kg/m3
423.53 K, 49200 kPa	924 ± 7 kg/m3
423.53 K, 55700 kPa	930 ± 7 kg/m3
423.53 K, 70700 kPa	939 ± 7 kg/m3
423.53 K, 83700 kPa	948 ± 7 kg/m3
423.53 K, 104200 kPa	960 ± 7 kg/m3
423.53 K, 125400 kPa	970 ± 7 kg/m3
423.53 K, 139900 kPa	977 ± 7 kg/m3
423.53 K, 153700 kPa	983 ± 7 kg/m3
423.53 K, 173400 kPa	992 ± 7 kg/m3
423.53 K, 207100 kPa	1006 ± 7 kg/m3
423.53 K, 239400 kPa	1018 ± 7 kg/m3
423.53 K, 263800 kPa	1028 ± 7 kg/m3
476.2 K, 5500 kPa	847 ± 6 kg/m3
476.2 K, 9400 kPa	853 ± 6 kg/m3
476.2 K, 9500 kPa	853 ± 6 kg/m3
476.2 K, 15200 kPa	861 ± 6 kg/m3
476.2 K, 15700 kPa	861 ± 6 kg/m3
476.2 K, 26800 kPa	874 ± 6 kg/m3
476.2 K, 27300 kPa	874 ± 6 kg/m3
476.2 K, 27500 kPa	874 ± 6 kg/m3
476.2 K, 46700 kPa	894 ± 6 kg/m3
476.2 K, 46900 kPa	894 ± 6 kg/m3
476.2 K, 59800 kPa	905 ± 6 kg/m3
476.2 K, 70700 kPa	914 ± 7 kg/m3
476.2 K, 71500 kPa	913 ± 7 kg/m3
476.2 K, 95700 kPa	931 ± 7 kg/m3
476.2 K, 96400 kPa	931 ± 7 kg/m3
476.2 K, 114200 kPa	942 ± 7 kg/m3
476.2 K, 114800 kPa	942 ± 7 kg/m3
476.2 K, 139800 kPa	959 ± 7 kg/m3
476.2 K, 140400 kPa	958 ± 7 kg/m3
476.2 K, 176200 kPa	975 ± 7 kg/m3
476.2 K, 206900 kPa	990 ± 7 kg/m3
476.2 K, 240200 kPa	1002 ± 7 kg/m3
476.2 K, 269000 kPa	1013 ± 7 kg/m3
491.86 K, 3900 kPa	830 ± 6 kg/m3 and 831 ± 6 kg/m3
491.86 K, 4100 kPa	830 ± 6 kg/m3
491.86 K, 9900 kPa	840 ± 6 kg/m3
491.86 K, 10500 kPa	839 ± 6 kg/m3
491.86 K, 22800 kPa	856 ± 6 kg/m3
491.86 K, 23300 kPa	856 ± 6 kg/m3
491.86 K, 37200 kPa	870 ± 6 kg/m3
491.86 K, 37500 kPa	870 ± 6 kg/m3
491.86 K, 50700 kPa	886 ± 6 kg/m3
491.86 K, 51100 kPa	885 ± 6 kg/m3
491.86 K, 71500 kPa	902 ± 6 kg/m3
491.86 K, 71900 kPa	902 ± 6 kg/m3
491.86 K, 94800 kPa	918 ± 6 kg/m3
491.86 K, 95000 kPa	918 ± 6 kg/m3
491.86 K, 121700 kPa	934 ± 7 kg/m3
491.86 K, 121800 kPa	934 ± 7 kg/m3
491.86 K, 145400 kPa	948 ± 7 kg/m3
491.86 K, 145600 kPa	948 ± 7 kg/m3
491.86 K, 177200 kPa	964 ± 7 kg/m3
491.86 K, 177400 kPa	964 ± 7 kg/m3
491.86 K, 204300 kPa	977 ± 7 kg/m3
491.86 K, 206000 kPa	978 ± 7 kg/m3
491.86 K, 229400 kPa	989 ± 7 kg/m3
491.86 K, 230800 kPa	988 ± 7 kg/m3
491.86 K, 253700 kPa	998 ± 7 kg/m3
491.86 K, 258100 kPa	1000 ± 7 kg/m3
523.6 K, 5700 kPa	811 ± 6 kg/m3
523.6 K, 9200 kPa	817 ± 6 kg/m3
523.6 K, 16100 kPa	827 ± 6 kg/m3
523.6 K, 21600 kPa	835 ± 6 kg/m3
523.6 K, 27300 kPa	842 ± 6 kg/m3
523.6 K, 27500 kPa	842 ± 6 kg/m3
523.6 K, 35500 kPa	851 ± 6 kg/m3
523.6 K, 35700 kPa	851 ± 6 kg/m3
523.6 K, 44200 kPa	860 ± 6 kg/m3
523.6 K, 44300 kPa	860 ± 6 kg/m3
523.6 K, 44400 kPa	860 ± 6 kg/m3
523.6 K, 44600 kPa	860 ± 6 kg/m3
523.6 K, 55800 kPa	871 ± 6 kg/m3
523.6 K, 56300 kPa	871 ± 6 kg/m3
523.6 K, 68500 kPa	882 ± 6 kg/m3
523.6 K, 68900 kPa	882 ± 6 kg/m3
523.6 K, 82200 kPa	893 ± 7 kg/m3
523.6 K, 82500 kPa	892 ± 7 kg/m3
523.6 K, 97000 kPa	903 ± 6 kg/m3
523.6 K, 97300 kPa	903 ± 6 kg/m3
523.6 K, 117000 kPa	916 ± 6 kg/m3
523.6 K, 117400 kPa	916 ± 6 kg/m3
523.6 K, 117700 kPa	916 ± 6 kg/m3
523.6 K, 155700 kPa	939 ± 7 kg/m3
523.6 K, 156100 kPa	939 ± 7 kg/m3
523.6 K, 181200 kPa	952 ± 7 kg/m3
523.6 K, 181500 kPa	952 ± 7 kg/m3
523.6 K, 209500 kPa	964 ± 7 kg/m3
523.6 K, 209900 kPa	964 ± 7 kg/m3
523.6 K, 233900 kPa	974 ± 7 kg/m3
523.6 K, 234000 kPa	974 ± 7 kg/m3
523.6 K, 253400 kPa	983 ± 7 kg/m3
523.6 K, 253600 kPa	983 ± 7 kg/m3
523.6 K, 263500 kPa	987 ± 7 kg/m3
